Our source for the Activity, Tmax and AUC(0-t) values is ChEMBL document CHEMBL5537193, “Multitargeting HDAC Inhibitors Containing a RAS/RAF Protein Interfering Unit” (J Med Chem, 2024).

For one data set, the system named is PANC-1. The data set can be described thus: Induction of apoptosis in human PANC-1 cells assessed as increase in cleaved PARP expression level at 2 uM incubated for 24 hrs by Western blot analysis. The format is functional, cell-based.
The nature of data set [1]: Tmax in Sprague-Dawley rat at 15 mg/kg, ip measured after 24 hrs by LC-MS/MS analysis. The settings on record: in vivo. The class given is ADME, organism-based.
Data set [2] is described as follows: AUC (0 to t) in Sprague-Dawley rat at 15 mg/kg, ip measured after 24 hrs by LC-MS/MS analysis. The class given is ADME, organism-based. The settings on record: in vivo.

Each structure is given as a SMILES string. Active and inactive are the calls of the source. No cut-off for these calls is given here.

By Tmax is commonly meant the time from dosing to the highest level. As usually defined, the AUC(0-t) is exposure summed from dosing to a finite time, without extrapolation to infinity. The low end stands for less exposure, the high end for more exposure. For the compound `COc1cc(OC)c(/C=C/S(=O)(=O)Cc2ccc(OC)c(NCC(=O)NO)c2)c(OC)c1`, in the data set with PANC-1, the result was Active. The Tmax in data set [1] was found to be 30 min. This compound also had an AUC(0-t) at 24 h in data set [2] of 5190 ng·h/mL.
